Data published in BigSolDB 2.1.

O=c1nc[nH]c2[nH]ncc12
Details	solubility (mole fraction)
in 1,4-dioxane, 283.15 K	2.91e-05
in 1,4-dioxane, 288.15 K	3.71e-05
in 1,4-dioxane, 293.15 K	4.64e-05
in 1,4-dioxane, 298.15 K	5.74e-05
in 1,4-dioxane, 303.15 K	7.03e-05
in 1,4-dioxane, 308.15 K	8.43e-05
in 1,4-dioxane, 313.15 K	0.000102
in 1,4-dioxane, 318.15 K	0.000123
in 1,4-dioxane, 323.15 K	0.000148
in 1,4-dioxane, 328.15 K	0.000178
in 1,4-dioxane, 333.15 K	0.000204
in 2-butanone, 278.15 K	0.000783
in 2-butanone, 283.15 K	0.000954
in 2-butanone, 288.15 K	0.00115
in 2-butanone, 293.15 K	0.00138
in 2-butanone, 298.15 K	0.00165
in 2-butanone, 303.15 K	0.00196
in 2-butanone, 308.15 K	0.00231
in 2-butanone, 313.15 K	0.00271
in 2-butanone, 318.15 K	0.00316
in 2-butanone, 323.15 K	0.00367
in 2-butanone, 328.15 K	0.00425
in 2-butanone, 333.15 K	0.00491
in DMF, 278.15 K	0.00223
in DMF, 283.15 K	0.00266
in DMF, 288.15 K	0.00316
in DMF, 293.15 K	0.00373
in DMF, 298.15 K	0.00437
in DMF, 303.15 K	0.00509
in DMF, 308.15 K	0.00591
in DMF, 313.15 K	0.00683
in DMF, 318.15 K	0.00785
in DMF, 323.15 K	0.00898
in DMF, 328.15 K	0.01
in DMF, 333.15 K	0.0121
in NMP, 278.15 K	0.0151
in NMP, 283.15 K	0.017
in NMP, 288.15 K	0.02
in NMP, 293.15 K	0.022
in NMP, 298.15 K	0.0251
in NMP, 303.15 K	0.0281
in NMP, 308.15 K	0.032
in NMP, 313.15 K	0.035
in NMP, 318.15 K	0.0391
in NMP, 323.15 K	0.0431
in NMP, 328.15 K	0.0481
in NMP, 333.15 K	0.0531
in acetone, 278.15 K	0.000653
in acetone, 283.15 K	0.000797
in acetone, 288.15 K	0.000966
in acetone, 293.15 K	0.00116
in acetone, 298.15 K	0.00139
in acetone, 303.15 K	0.00166
in acetone, 308.15 K	0.00196
in acetone, 313.15 K	0.00231
in acetone, 318.15 K	0.0027
in acetone, 323.15 K	0.00314
in acetone, 328.15 K	0.00365
in acetone, 333.15 K	0.00421
in acetonitrile, 278.15 K	9.6e-05
in acetonitrile, 283.15 K	0.000117
in acetonitrile, 288.15 K	0.000141
in acetonitrile, 293.15 K	0.00017
in acetonitrile, 298.15 K	0.000204
in acetonitrile, 303.15 K	0.000239
in acetonitrile, 308.15 K	0.000286
in acetonitrile, 313.15 K	0.000331
in acetonitrile, 318.15 K	0.000384
in acetonitrile, 323.15 K	0.000448
in acetonitrile, 328.15 K	0.000522
in acetonitrile, 333.15 K	0.00059
in cyclohexane, 283.15 K	4.74e-07
in cyclohexane, 288.15 K	6.38e-07
in cyclohexane, 293.15 K	7.68e-07
in cyclohexane, 298.15 K	1.02e-06
in cyclohexane, 303.15 K	1.24e-06
in cyclohexane, 308.15 K	1.61e-06
in cyclohexane, 313.15 K	1.97e-06
in cyclohexane, 318.15 K	2.48e-06
in cyclohexane, 323.15 K	3.05e-06
in cyclohexane, 328.15 K	3.77e-06
in cyclohexane, 333.15 K	4.37e-06
in ethanol, 278.15 K	2.46e-05
in ethanol, 283.15 K	3.28e-05
in ethanol, 288.15 K	4.27e-05
in ethanol, 293.15 K	5.5e-05
in ethanol, 298.15 K	6.99e-05
in ethanol, 303.15 K	8.97e-05
in ethanol, 308.15 K	0.000109
in ethanol, 313.15 K	0.000139
in ethanol, 318.15 K	0.000172
in ethanol, 323.15 K	0.000211
in ethanol, 328.15 K	0.000258
in ethanol, 333.15 K	0.00031
in isopropanol, 278.15 K	3.64e-05
in isopropanol, 283.15 K	4.68e-05
in isopropanol, 288.15 K	5.84e-05
in isopropanol, 293.15 K	7.35e-05
in isopropanol, 298.15 K	9.2e-05
in isopropanol, 303.15 K	0.000112
in isopropanol, 308.15 K	0.000138
in isopropanol, 313.15 K	0.000171
in isopropanol, 318.15 K	0.000204
in isopropanol, 323.15 K	0.000245
in isopropanol, 328.15 K	0.000296
in isopropanol, 333.15 K	0.000346
in methanol, 278.15 K	2.05e-05
in methanol, 283.15 K	2.7e-05
in methanol, 288.15 K	3.61e-05
in methanol, 293.15 K	4.65e-05
in methanol, 298.15 K	5.97e-05
in methanol, 303.15 K	7.6e-05
in methanol, 308.15 K	9.62e-05
in methanol, 313.15 K	0.00012
in methanol, 318.15 K	0.000152
in methanol, 323.15 K	0.000189
in methanol, 328.15 K	0.000235
in methanol, 333.15 K	0.000283
in n-butanol, 278.15 K	6.63e-05
in n-butanol, 283.15 K	8.13e-05
in n-butanol, 288.15 K	0.0001
in n-butanol, 293.15 K	0.000124
in n-butanol, 298.15 K	0.000151
in n-butanol, 303.15 K	0.000184
in n-butanol, 308.15 K	0.000219
in n-butanol, 313.15 K	0.00026
in n-butanol, 318.15 K	0.000312
in n-butanol, 323.15 K	0.000366
in n-butanol, 328.15 K	0.000429
in n-butanol, 333.15 K	0.000496
in n-heptanol, 278.15 K	0.000127
in n-heptanol, 283.15 K	0.000149
in n-heptanol, 288.15 K	0.000175
in n-heptanol, 293.15 K	0.000205
in n-heptanol, 298.15 K	0.000239
in n-heptanol, 303.15 K	0.000276
in n-heptanol, 308.15 K	0.000318
in n-heptanol, 313.15 K	0.000365
in n-heptanol, 318.15 K	0.000418
in n-heptanol, 323.15 K	0.000473
in n-heptanol, 328.15 K	0.000544
in n-heptanol, 333.15 K	0.000614
in n-hexanol, 278.15 K	8.05e-05
in n-hexanol, 283.15 K	9.84e-05
in n-hexanol, 288.15 K	0.000119
in n-hexanol, 293.15 K	0.000145
in n-hexanol, 298.15 K	0.000177
in n-hexanol, 303.15 K	0.000214
in n-hexanol, 308.15 K	0.000259
in n-hexanol, 313.15 K	0.000302
in n-hexanol, 318.15 K	0.00036
in n-hexanol, 323.15 K	0.00042
in n-hexanol, 328.15 K	0.000499
in n-hexanol, 333.15 K	0.000566
in n-propanol, 278.15 K	4.85e-05
in n-propanol, 283.15 K	6.16e-05
in n-propanol, 288.15 K	7.66e-05
in n-propanol, 293.15 K	9.52e-05
in n-propanol, 298.15 K	0.000114
in n-propanol, 303.15 K	0.00014
in n-propanol, 308.15 K	0.000164
in n-propanol, 313.15 K	0.000201
in n-propanol, 318.15 K	0.000247
in n-propanol, 323.15 K	0.000293
in n-propanol, 328.15 K	0.000349
in n-propanol, 333.15 K	0.000403
in water, 278.15 K	8.71e-06
in water, 283.15 K	1.18e-05
in water, 288.15 K	1.57e-05
in water, 293.15 K	2.12e-05
in water, 298.15 K	2.94e-05
in water, 303.15 K	3.83e-05
in water, 308.15 K	5.01e-05
in water, 313.15 K	6.44e-05
in water, 318.15 K	8.32e-05
in water, 323.15 K	0.000107
in water, 328.15 K	0.000134
in water, 333.15 K	0.000167
